BindingDB's records for doi:10.1016/s0014-2999(98)00241-6 (Mcgill University, 1998)

Molecular target: Norepinephrine transporter (Rattus norvegicus, UniProt Q9JIA2)

Row | Structure (SMILES) | Ki [µM]
1 | c1ccc2c(CCC3CCNCC3)c[nH]c2c1 | 2.76
2 | COCCCC/C(=N\OCCN)c1ccc(C(F)(F)F)cc1 [(1E)-5-methoxy-1-[4-(trifluoromethyl)phenyl]pentan-1-one O-(2-aminoethyl)oxime] | 1.36
